Data as given in publication PMC6662706, “Short amylin receptor antagonist peptides improve memory deficits in Alzheimer’s disease mouse model” (Scientific Reports, 2019).
No end group written: not given here.

Tests used:
[1] = system: ERK1/2 signaling pathway downstream of AMY3 receptor; experiment: hAmylin-evoked phosphoERK1/2 in HEK-AMY3 cells; assay type: cell-based; conditions: peptides 10 μM, hAmylin 1 μM, n = 3
Source text: Human amylin is a potent agonist at amylin receptor stimulating cAMP production in cells. In the first in vitro bioassay, we examined ability of R5 and R14 to block the hAmylin-evoked cAMP generation in HEK-AMY3 cells. R11 peptide served as a negative control. […] In a second in vitro assay, we examined whether peptides R5, and R14 could protect human fetal neurons (HFNs) and N2a (mouse neuroblastoma cell line) from Αβ1–42 induced cytotoxicity.
A shorter peptide library was derived from AC253 peptide sequence comprising 12–14 amino acid peptides. […] To determine the activity of these shorter peptides to block AMY3 receptor signaling, cellular cAMP levels (measured using a parameter cyclic AMP assay kit, R&D Systems) and phosphorylation ERK1/2 (Western blot) were measured. We assessed neuroprotective properties of the peptide fragments against Aβ cytotoxicity in vitro using the MTT assay in N2a cell line and human fetal neurons (HFNs), which were prepared from 12- to 15-gestational week fetuses with approval of the Human Ethics Research Board at the University of Alberta as previously reported[17],[19].
Intracellular signaling profiles were determined using in-cell Western blot techniques as previously described ^8. […]

5XFAD mice = experiment: Morris Water Maze and probe test, 5XFAD and wild-type mice; assay type: in vivo, mouse; conditions: for memory task in age-matched wild-type control mice: systemic administration, ip three times a week for 5 weeks
Description: The determination of injection amount of R5 (200 µg/kg) was based on achieving equimolar concentrations as the full length peptide, cAC253[21] and prior studies that used pramlintide injections[22],[23]. The normal mouse circulated endogenous amylin level is 0.7 ± 0.4 pmol/L in plasma[32] and based upon our in vitro data (Fig. 1E) unlikely to perturb the function of peptides in vivo at these concentrations.
For in vivo studies, 5XFAD mouse breeding stocks were obtained from the Jackson Laboratory (JAX #006554). Intraperitoneal injection (ip) administration of fragment R5 and cAC253 was carried out in 5XFAD mice and wild-type littermate control mice (both male and female). These mice were equally and randomly distributed into 6 groups (n = 10 for each group), and received either normal saline (NS), cAC253 or R5 fragment (200 µg/kg) i.p. injections 3 times a week starting at 6 months of age for 5 weeks.
The Morris Water Maze (MWM) and probe test were carried out for behavioral testing. The mice were trained for 3 days (4 trials per day) to find a submerged platform (target quadrant, TQ). The trial ended when a mouse found and climbed onto the platform within 120s. Mice were tested with inter-trial interval of 50 min. Memory was evaluated in probe trial, administered on day 4 as the first trial of the day. During probe trial, the platform was removed from the pool. Memory for the platform location was expressed as the percent of time spent in TQ.
For in vivo experiments, intraperitoneal injection (ip) administration of fragment R5 and cAC253 was carried out in 6 month old transgenic 5XFAD mice and wild-type littermate control mice (both male and female) obtained from Dr. David Westaway (University of Alberta). These mice were equally and randomly distributed into 6 groups and 10 mice assigned for each group, Tg-NS, Tg-cAC253, Tg-R5, Wt-NS, Wt-cAC253, Wt-R5. Randomized double blind control experiment was carried out for the whole in vivo experiment, i.e. the individual administering ip injections was blinded to the identity of the drug, and the individual testing behavior was blind to the treatment being administered. […]
The MWM apparatus consisted of 2-m circular blue plastic pool filled with water (24–25°C), which was rendered opaque by the addition of non-toxic white paint. […] The behavior of a mouse was recorded by a video camera connected to a video tracking system (HVS Image 2100, HVS Image, Buckingham, UK).
The pool was surrounded by a white curtain, and a mouse was released facing the wall at points (N, E, S, W) which were chosen semi-randomly. […] Memory was evaluated in probe trial, administered on day 4 as the first trial of the day. […] Memory for the platform location was expressed as the percent of time spent in TQ.

| Substance | effect on increases in phosphoERK1/2 evoked by hAmylin [1] | Morris Water Maze escape latencies, 5XFAD mice versus normal saline (5XFAD mice; 200 µg/kg ip three times a week for 5 weeks from 6 months of age, n = 9 mice per group) | Probe trial, quadrant preference, 5XFAD mice (5XFAD mice; 200 µg/kg ip three times a week for 5 weeks, n = 9) | memory task in age-matched wild-type control mice (5XFAD mice) |
| --- | --- | --- | --- | --- |
| SQELHRLQTYPR-NH2 [R5] | reduce increases in phosphoERK1/2 | marked improvement in escape latencies | preference for the target quadrant | no alterations in the memory task |
| LGRLSQELHRLQTYPRTNTGSNTY-NH2 (C-terminus assumed) [AC253, reference compound] | reduce increases in phosphoERK1/2 |  |  | no alterations in the memory task |
